Assay results: patent US20250376466A1, “ESTER COMPOUNDS AND USE THEREOF” (NANJING REJU THERAPEUTICS, CO., LTD., priority 2022, published 2025)

What was measured:
renal fibrosis = test: Renal fibrosis animal model (ureter ligation); assay type: in vivo, mice; settings: intraperitoneal (IP) injection from 2nd week of modelling; FIG. 11
Description: In this example, the efficacy of the compound of the present disclosure was tested on renal fibrosis in an animal model of renal fibrosis. Briefly, C57BL/6J mice, male, 7 to 8 weeks old, were used. The mice were anaesthetized, made to lie supine on a foam board, and disinfected with iodophor, and a longitudinal incision was made in the skin in the middle of the lower abdomen to locate the white line of the abdominal muscle, where the abdominal muscle, fascia and peritoneal layer were dissected. After exposing the surgical field, the kidneys were exposed by pushing the stomach and mesentery of the mice to the right side with a gauze soaked with saline. The model of renal fibrosis was constructed by locating the transparent ureter from the renal pelvis along the renal artery, separating the left ureter, ligating the upper ⅓ of the left ureter, suturing the incision layer by layer, and finally disinfecting with iodophor. Dosing via intraperitoneal injection was started from the 2nd week of modelling. At the end of the experiment, the mouse serum was collected and kidney tissues were taken for Masson staining index assay.

aging skin = test: Aging skin in naturally aging mouse model; assay type: in vivo; settings: skin application twice a week, 6 consecutive weeks; aged female mice (22 months old); FIG. 10
Description: In this example, aged female C57bl/6J mice (22 months old) were used. The drug was administered by skin application at twice a week for 6 consecutive weeks.

[1] = tested on: wet-age-related macular degeneration (CNV); test: CNV animal model of wet age-related macular degeneration; assay type: in vivo, mice; settings: intravitreal (IVT); laser CNV model; FIG. 5
Description: In this example, the efficacy of the compounds of the present disclosure was tested on wet-age-related macular degeneration in a CNV animal model.
Male mice were administered 0.5% probacaine hydrochloride (Alcon) for local anesthesia, and 1% tropicamide to dilate the pupils of the mice. Laser cauterization was performed using a laser photocoagulator (Novus Varia, LUMENIS) with a slit lamp delivery system. And artificially torn adherent glass coverslips were used as contact lenses. Bleeding spots caused by laser were not included in the statistical data.

[2] = tested on: normal and senescent A549 cells; test: Senescent cell clearance index (senolytic index); assay type: cell-based, human; settings: higher index = greater specificity
Description: In this example, human non-small cell lung cancer cell line (A549 cells), human embryonic lung fibroblast cell line (IMR90 cells), human retinal pigment epithelial cells (RPE cells), mouse chondrocytes, and mouse skin fibroblasts were selected. The cells above were induced to obtain senescent cells by etoposide (10 μM). The effect of the target compounds RZ001-RZ006 and RZ201 on the viability of normal and senescent cells above was detected, thereby evaluating the specific killing effect of the prodrugs RZ001-RZ006 and RZ201 on senescent cells above.
Briefly, senescent and normal cells above were selected and plated separately (96-well plates). After adding the compounds RZ001-RZ006 and RZ201 (concentration: 1 μM) for 72 hours, CellTiter-Glo® Luminescent Cell Viability Assay Kit (Promega) was used to detect cell viability, and the results were shown in FIGS. 2A to 2E.
Furthermore, the senescent cell clearance index (senolytic index) was also calculated for both normal and senescent A549 cells, as shown in Table 4. A higher index indicates greater specificity in eliminating senescent cells and better safety.

osteoarthritis = test: Osteoarthritis animal model; assay type: in vivo, mice; settings: intra-articular injection; FIG. 7
Description: In this example, the efficacy of the compounds of the present disclosure was tested on osteoarthritis in an osteoarthritis animal model.
The osteoarthritis animal model was constructed by the following steps. The mice were anesthetized with isoflurane, and fixed. The hair on the right hind limb of the mice was shaved and the skin was disinfected with alcohol, and the skin of the joints was cut. Under an optical microscope, the inside of the right knee joint was incised longitudinally with a blade, without cutting the patellar ligament. The patellar ligament was pulled to one side with constant hemostasis by compression with sterile cotton swabs such that the joint cavity was fully exposed. Saline was added dropwise in time to avoid the drying up of the joint cavity. The excess muscle tissue was gently separated with a blunt forceps to expose the meniscus ligament. The anterior cruciate ligament was found in the depth of the joint cavity and cut with micro scissor. Then the wound was disinfected with penicillin solution, the muscle was sutured with sterile needle and thread, and the skin tissue was finally sutured. The efficacy of the drug was determined by intra-articular injection administration. At the endpoint of the test, continued pain threshold of the plantar was detected, and the bone joints were stained with safranin fast green.

hepatic fibrosis = test: CCl4 mouse model of hepatic fibrosis; assay type: in vivo, mice; settings: intraperitoneal (IP) injection twice a week from third week of modelling; FIG. 9
Description: In this example, the efficacy of the compounds of the present disclosure was tested on hepatic fibrosis in an animal model of hepatic fibrosis. Briefly, C57BL/6N mice, male, 7 to 8 weeks old, 24 to 28 g of body weight, were used. The mouse model of hepatic fibrosis was induced by intraperitoneal injection of CCl4 solution at a dosage of 1 mL/kg, with a dosing frequency of 2 times/week, and a modelling cycle of 6 weeks. Dosing via intraperitoneal injection was started from the third week of modelling twice a week. At the end of the test, serum was collected, and liver tissue was taken for Masson staining index assay.

[3] = tested on: idiopathic pulmonary fibrosis; test: Bleomycin idiopathic pulmonary fibrosis animal model; assay type: in vivo, SD rats; settings: intraperitoneal (IP) 5 mg/kg, 3 consecutive weeks from day 7; Day 28; FIG. 6
Description: In this example, the efficacy of the compounds of the present disclosure was tested on idiopathic pulmonary fibrosis in an idiopathic pulmonary fibrosis animal model. Briefly, anesthetized 6-week-old SD rats were fixed on a foam board with medical tape. Firstly, the skin on the surface of the trachea was cut with surgical scissors to fully expose the trachea, and a 100-microlitre micro-syringe containing a certain volume of bleomycin (BLM 5 mg/kg) solution drawn based on the body weight of the rat was inserted into the trachea through the oral cavity to administer by slow bolus injection. After administration of the BLM solution, the foam plate was immediately rotated and shaken to distribute the BLM solution as evenly as possible in the lung tissue. Then the skin on the surface of the trachea was sutured with surgical sutures and about 0.5 to 1.0 mL of penicillin solution was dripped onto the epidermis to prevent infection of the surgical wound. After the 7th day of modelling, the compound solution of the present disclosure was administered via intraperitoneal (IP) injection (5 mg/kg) according to the weight of the rat for 3 consecutive weeks. Rats were euthanized by carbon dioxide at Day 28, the lung tissues were removed, the left alveolar lavage fluid was collected for white blood cell (WBC) counting, the right lung tissue portion was used for hydroxyproline (HYP) assay, and the remaining lung tissues were stained for pathology by H&E staining and Masson staining.

Row | Structure (SMILES) | pathology (kidney, Masson staining) (renal fibrosis) | serum creatinine (Cr) levels (renal fibrosis) | serum urea nitrogen (BUN) levels (renal fibrosis) | epidermal thickness scores of the skin (aging skin) | fluorescence intensity indicators [1] | senescent cell clearance index (Senolytic Index) [2] | pathology scores of safranin fast green staining (osteoarthritis) | plantar mechanical pain threshold (osteoarthritis) | pathology scores (liver, Masson staining) (hepatic fibrosis) | serum alanine aminotransferase (ALT) levels (hepatic fibrosis) | serum aspartate aminotransferase (AST) levels (hepatic fibrosis) | HYP (hydroxyproline, lung tissue) [3] | WBC (white blood cell count, alveolar lavage fluid) [3] | pathology scores (H&E and Masson staining, lung) [3]
1 | Cc1c(-c2ccc(N3CCc4cccc(C(=O)Nc5nc6ccccc6s5)c4C3)nc2C(=O)OCOC(=O)C(C)C)cnn1CC12CC3CC(CC(C3)C1)C2 [RZ001] | statistically significant improvements | statistically significant improvements | statistically significant improvements | statistically significant improvements | statistically significant improvements | A (A represents more than 200) | statistically significant improvements | statistically significant improvements | statistically significant improvements | statistically significant improvements | statistically significant improvements | statistically significant improvements | statistically significant improvements | statistically significant improvements
2 | Cc1oc(=O)oc1COC(=O)c1nc(N2CCc3cccc(C(=O)Nc4nc5ccccc5s4)c3C2)ccc1-c1cnn(CC23CC4CC(CC(C4)C2)C3)c1C [RZ201] | statistically significant improvements | statistically significant improvements | statistically significant improvements | statistically significant improvements | statistically significant improvements | A (A represents more than 200) | statistically significant improvements | statistically significant improvements | statistically significant improvements | statistically significant improvements | statistically significant improvements | statistically significant improvements | statistically significant improvements | statistically significant improvements
